According to US20090220503A1, “METHOD FOR TREATING CANCERS WITH INCREASED RAS SIGNALING” (THE TRUSTEES OF BOSTON UNIVERSITY, priority 2006, published 2009):

What was measured:
MIA PaCa-2 cells = assay: MTT cell proliferation assay, MIA PaCa-2; format: cell-based, human; settings: MIA PaCa-2 (mutated p21Ras), 48 h, inhibitor concentration as in Table 3
Description: (§1) FIGS. 1A-1C show effects of different PKC isoform inhibitors on proliferation of mouse fibroblast cells and human pancreatic cells. Cells were grown to 80% confluence in 96-well plates, then treated with the inhibitors at the concentrations indicated in Table I. The corresponding solvents with equivalent volume were used as vehicle controls. After 48 h treatment, cell proliferation was evaluated by MTT assay. Results are presented as the means ±SD. Statistical significance was determined using a paired Student's t-test, and p-values ≦0.05 were considered significant. […] Nuclear-free lysates containing a total of 400 μg protein from each indicated cell type were used for analysis of Ras activity by Raf-RBD pull down.
(§2) All inhibitors were dissolved in dimethyl sulfoxide for use, and their effects were measured relative to dimethyl sulfoxide (vehicle)-treated controls.
(§3) Cell Culture and Treatment. NIH/3T3 and Balb cell lines were obtained from ATCC (American Type Culture Collection, Rockville, Md.). NIH/3T3-Ras cells were produced by stable transfection of v-Harvey ras, and selected and maintained in 0.5 mg/ml of Geneticin (Gibco BRL, Gaithersburg, Md.). Ki-v-ras-Balb (KBalb) cells were produced by stable infection of Balb with retroviral vector stocks containing v-Kirsten ras, and were selected and maintained with Geneticin. The human pancreatic tumor lines Hs 766s, BxPC-3 and MIA PaCa-2, were obtained from ATCC. All cell lines were maintained in Dulbecco Modified Eagle medium (DMEM) (Gibco BRL) supplemented with 2 mM 1-glutamine, 100 U/ml of penicillin, and 100 μg/ml of streptomycin (Gibco BRL). […] Cell proliferation was assessed using an MTT [3-(4,5-dimethylthiazol-2-yl)-2,5-diphenyltetrazolium bromide] assay (Roche, Mannheim, Germany). […] The optical densities were quantified at a test wavelength of 550 nm and a reference wavelength of 630 nm on a multiwell spectrophotometer. siRNA Knockdown of PKCδ. siRNA duplexes (siRNAs) were obtained from Qiagen (Valencia, Calif.). […]

KBalb cells [1] = assay: MTT cell proliferation assay, KBalb; format: cell-based, mouse; settings: KBalb (mutated p21Ras), 48 h, inhibitor concentration as in Table 3
Description: as §1, §2, §3

NIH/3T3 cells = assay: Apoptotic (hypodiploid) fraction by propidium iodide flow cytometry, NIH/3T3 cells expressing Ras effectors or effector mutants; format: cell-based, mouse
Description: (§4) FIGS. 4A-4D show activation of apoptosis by individual p21^Ras-effector pathways. […] Cells were fixed and stained with propidium iodide, and the apoptotic (hypodiploid) fractions were evaluated by PI staining and flow cytometric analysis using the FL2-H channel. Cells transfected with the empty pSG5 vector served as negative controls. […] NIH/3T3 cells were pre-treated for 30 minutes with Ly294002 (10 μM) before rottlerin (20 μM) was added. The apoptotic (hypodiploid) fractions were evaluated 60 h later. […] The apoptotic (hypodiploid) fractions were evaluated 60 h later. Cells were fixed and stained with propidium iodide. DNA fragmentation was analyzed by flow cytometry using the FL2-H channel.
Cell Culture and Treatment. NIH/3T3 and Balb cell lines were obtained from ATCC (American Type Culture Collection, Rockville, Md.). NIH/3T3-Ras cells were produced by stable transfection of v-Harvey ras, and selected and maintained in 0.5 mg/ml of Geneticin (Gibco BRL, Gaithersburg, Md.). Ki-v-ras-Balb (KBalb) cells were produced by stable infection of Balb with retroviral vector stocks containing v-Kirsten ras, and were selected and maintained with Geneticin. The human pancreatic tumor lines Hs 766s, BxPC-3 and MIA PaCa-2, were obtained from ATCC. All cell lines were maintained in Dulbecco Modified Eagle medium (DMEM) (Gibco BRL) supplemented with 2 mM 1-glutamine, 100 U/ml of penicillin, and 100 μg/ml of streptomycin (Gibco BRL). Media was additionally supplemented with 10% DCS (NIH/3T3, NIH/3T3-Ha-v-Ras, Balb/3T3, Ki-v-ras-Balb, and Balb-myc), or 10% FBS (BxPC-3, MIA PaCa-2). Cells were cultured at 37° C. and 5% CO2. Cell Proliferation Assay. Cell proliferation was assessed using an MTT [3-(4,5-dimethylthiazol-2-yl)-2,5-diphenyltetrazolium bromide] assay (Roche, Mannheim, Germany). […] The optical densities were quantified at a test wavelength of 550 nm and a reference wavelength of 630 nm on a multiwell spectrophotometer. siRNA Knockdown of PKCδ. siRNA duplexes (siRNAs) were obtained from Qiagen (Valencia, Calif.). […] PKCδ protein levels were determined by immunoblot analysis. […] PKCδ activity was measured with an assay kit (Upstate Cell Signaling). […] Immunocomplexes were washed three times with the kinase buffer (20 mM Tris-HCl, 10 mM MgCl2, pH 7.5) and then incubated with a PKC-specific peptide substrate, [γ-^33P]ATP, and inhibitors of cAMP-dependent kinase and calmodulin kinase for 10 min at 30° C. ^33P incorporated into the substrate was separated from residual ^33P using p81 filters and subsequently quantified by scintillation counting. β-actin antibody was used as negative control in immunoprecipitations. p21^Ras Activity Assays. […]

KBalb cells [2] = assay: Apoptotic (hypodiploid) fraction by propidium iodide flow cytometry, KBalb; format: cell-based, mouse; settings: 60 h
Description: as §4
Cell Culture and Treatment. NIH/3T3 and Balb cell lines were obtained from ATCC (American Type Culture Collection, Rockville, Md.). […] Cell proliferation was assessed using an MTT [3-(4,5-dimethylthiazol-2-yl)-2,5-diphenyltetrazolium bromide] assay (Roche, Mannheim, Germany). […] The optical densities were quantified at a test wavelength of 550 nm and a reference wavelength of 630 nm on a multiwell spectrophotometer. siRNA Knockdown of PKCδ. siRNA duplexes (siRNAs) were obtained from Qiagen (Valencia, Calif.). […] PKCδ protein levels were determined by immunoblot analysis. […] PKCδ activity was measured with an assay kit (Upstate Cell Signaling). […]

Hs766T cells = assay: MTT cell proliferation assay, Hs766T; format: cell-based, human; settings: Hs766T (wild-type p21Ras), 48 h, 20 μM
Description: as §1, §2
(§5) Cell Culture and Treatment. NIH/3T3 and Balb cell lines were obtained from ATCC (American Type Culture Collection, Rockville, Md.). […] Cell proliferation was assessed using an MTT [3-(4,5-dimethylthiazol-2-yl)-2,5-diphenyltetrazolium bromide] assay (Roche, Mannheim, Germany). […] The optical densities were quantified at a test wavelength of 550 nm and a reference wavelength of 630 nm on a multiwell spectrophotometer. siRNA Knockdown of PKCδ. siRNA duplexes (siRNAs) were obtained from Qiagen (Valencia, Calif.). […]

Balb cells = assay: MTT cell proliferation assay, Balb; format: cell-based, mouse; settings: Balb (wild-type p21Ras), 48 h, 20 μM
Description: as §1, §2, §5

PKCδ [3] = format: cell-based
Description: (§6) Cell Culture and Treatment. NIH/3T3 and Balb cell lines were obtained from ATCC (American Type Culture Collection, Rockville, Md.). NIH/3T3-Ras cells were produced by stable transfection of v-Harvey ras, and selected and maintained in 0.5 mg/ml of Geneticin (Gibco BRL, Gaithersburg, Md.). Ki-v-ras-Balb (KBalb) cells were produced by stable infection of Balb with retroviral vector stocks containing v-Kirsten ras, and were selected and maintained with Geneticin. The human pancreatic tumor lines Hs 766s, BxPC-3 and MIA PaCa-2, were obtained from ATCC. All cell lines were maintained in Dulbecco Modified Eagle medium (DMEM) (Gibco BRL) supplemented with 2 mM 1-glutamine, 100 U/ml of penicillin, and 100 μg/ml of streptomycin (Gibco BRL). Media was additionally supplemented with 10% DCS (NIH/3T3, NIH/3T3-Ha-v-Ras, Balb/3T3, Ki-v-ras-Balb, and Balb-myc), or 10% FBS (BxPC-3, MIA PaCa-2). Cells were cultured at 37° C. and 5% CO2. Cell Proliferation Assay. Cell proliferation was assessed using an MTT [3-(4,5-dimethylthiazol-2-yl)-2,5-diphenyltetrazolium bromide] assay (Roche, Mannheim, Germany). […] The optical densities were quantified at a test wavelength of 550 nm and a reference wavelength of 630 nm on a multiwell spectrophotometer. siRNA Knockdown of PKCδ. siRNA duplexes (siRNAs) were obtained from Qiagen (Valencia, Calif.). […]

PKCδ [4] = assay: Immunoblot analysis of PKCδ protein levels; format: cell-based; settings: 20 μM, 48 h, all cell lines tested
Description: as §6

Compound: CN(C)CCCn1cc(C2=C(c3c[nH]c4ccccc34)C(=O)NC2=O)c2ccccc21 [Bis-1, Bisindolylmaleimide I]
- cell proliferation (MTT) (MIA PaCa-2 cells): strongly suppressed the growth
- cell proliferation (MTT) (KBalb cells [1]): strongly suppressed the growth

Compound: CCCCCCCCCCCCCCCCOCC(CO)OC (stereo not shown) [HMG]
- cell proliferation (MTT) (MIA PaCa-2 cells): strongly suppressed the growth
- cell proliferation (MTT) (KBalb cells [1]): strongly suppressed the growth

Compound: O=c1cc(N2CCOCC2)oc2c(-c3ccccc3)cccc12 [LY294002]
- decrease of apoptosis induced by rottlerin (NIH/3T3 cells; NIH/3T3 p110-CAAX, 20 μM pre-treatment 30 min, then rottlerin 20 μM 60 hours): ~50%
- apoptosis induced by PKCδ inhibition blocked (KBalb cells [2]; KBalb cells, pre-treatment before rottlerin 20 μM): 50%

Compound: COc1cccc(-c2cc(=O)c3ccccc3o2)c1N [PD98095]
- suppression of p21Ras-dependent apoptosis (KBalb cells [2]; cells with activated p21Ras, 10 μM pre-treatment, rottlerin 20 μM, lesser degree than PI3K-inhibition): suppressed p21^Ras-dependent apoptosis to some extent

Compound: CC(=O)c1c(O)c(C)c(O)c(Cc2c(O)c3c(c(C(=O)/C=C/c4ccccc4)c2O)OC(C)(C)C=C3)c1O [rottlerin, Rottlerin]
- cell proliferation (MTT) (MIA PaCa-2 cells): dramatically and specifically decreased the proliferation
- cell proliferation (MTT) (KBalb cells [1]): dramatically and specifically decreased the proliferation
- cell proliferation (MTT) (Hs766T cells): stimulated proliferation
- cell proliferation (MTT) (Balb cells): stimulated proliferation
- PKCδ activity blocked (PKCδ [3]): greater than 95%
- PKCδ protein levels after rottlerin (PKCδ [4]): suppressed PKCδ levels somewhat
- apoptosis in cells expressing p21Ras effector mutants S35, G37, C40 (NIH/3T3 cells; 20 μM, 60 h, C40 greatest): stimulated apoptosis to some extent
- apoptosis in cells expressing Raf or Ral-GEF effectors (NIH/3T3 cells; NIH/3T3 Raf-22W, RIF-CAAX, rottlerin 20 μM, 60 h): induced little apoptosis
- apoptotic frequency (NIH/3T3 cells; NIH/3T3 with activated PI3K (p110-CAAX), rottlerin 20 μM, 60 h): 38.22%
